One data set concerns Gli1. The experiment in a line: Primary keratinocyte cell culture, reduction in Gli mRNA. Format: cell-based. The settings on record: primary human keratinocytes. The protocol: To study the potency of the compounds of the invention in cells, select compounds of the invention were conducted with keratinocytes and the reduction in Gli mRNA was measured. Culturing of primary human keratinocytes was previously described (Nguyen, B. C., et al., Genes & Dev. 20:1028-1042 (2006)). The full thickness skin model, EpiDermFT System (MatTek, Ashland), consisted of normal, human-derived epidermal keratinocytes and normal, human-derived dermal fibroblasts which have been cultured to form a multilayered, highly differentiated model of the human dermis and epidermis. […] Gene expression is compared by quantifying mRNA levels by real time RT-PCR. For this, total RNA preparations […] are used in a reverse transcriptase reaction with a mix of oligonucleotide dT and random hexamer primers, followed by real time PCR with gene-specific primers (Gli1: Qiagen Quantitect PrimerAssay QT00060501; Gli2: Qiagen Quantitect PrimerAssay QT00018648), using an […] real time detection system (Bio-Rad) according to the manufacturer's recommendation, with SYBR Green (Bio-Rad) for detection.

The target of a further data set is T1, ShhN protein (Homo sapiens, UniProt Q15465).
T1 construct: auto-cleavage of full length Shh into an active 20 kD N-terminal fragment (ShhN); purchased R&D Systems
The experiment in a line: Surface Plasmon Resonance (SPR) protein binding assay on immobilized ShhN. Summed up: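 Binding to immobilized ShhN measured on a Biacore T100 at 25°C. Signals referenced against underivatized control surfaces, with zero-concentration blank cycles included. Solvent correction applied.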

A further data set has as its system C3H10T1/2. The experiment in a line: Induction of osteogenic differentiation (modulation of osteoblast differentiation). The note with it: Mus musculus, C3H 10T1/2, read-out: IC50 (nM) C3H10T1/2.
The conditions of data set [1]: rcm bond, toluene.
Where [2] appears, read: SPR, Biacore T100, ShhN immobilized on CM4 chip, 25° C., compound 0.78 μM-25 μM, read-out: KD.

Each structure is given as a SMILES string. Like-named read-outs stand apart in the source and are kept apart here. Where only a bound is given, the exact number is not on record here.

The source of these data is US20140094462A1, “SONIC HEDGEHOG MODULATORS” (priority 2009, published 2014).

T1 sequence (Q15465 24-197 limits assumed, species assumed): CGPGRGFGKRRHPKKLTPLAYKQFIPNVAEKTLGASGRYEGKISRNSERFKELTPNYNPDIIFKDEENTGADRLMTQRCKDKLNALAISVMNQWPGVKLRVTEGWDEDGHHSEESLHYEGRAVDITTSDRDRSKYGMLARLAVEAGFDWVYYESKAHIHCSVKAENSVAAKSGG
From the text for C3H10T1/2: Using assays previously described in Dwyer et al., J. Biol. Chem. 282, (2007), 8959-68 and Nakamura et al., Biochm. […] Res. Comm., 237 (1997) 465-9, select compounds of the invention were screened for their ability to modulate osteoblast differentiation.

`O=C(C[C@@H]1C/C=C/CCC(=O)O[C@H](c2ccccc2)CNC1=O)NCC1CCOCC1` [Example EF, 2-((2R,6S,E)-5,12-dioxo-2-phenyl-1-oxa-4-azacyclododec-8-en-6-yl)-N-((tetrahydro-2H-pyran-4-yl)methyl)acetamide] showed an IC50 in the data set on Gli1 of 1000 to 100000 nM. Besides, at ShhN protein (setting [2]), the Kd was in the range of 1000 to 100000 nM.

As for `O=C(C[C@@H]1C[C@@H]2O[C@H]2CCC(=O)N[C@H](c2ccccc2)COC1=O)NCc1ccc(Cl)cc1` [Example CD, N-(4-chlorobenzyl)-2-((1S,3S,7R,12S)-4,9-dioxo-7-phenyl-5,13-dioxa-8-azabicyclo[10.1.0]tridecan-3-yl)acetamide], the IC50 in the data set with Gli1 is 1000 to 100000 nM. Moreover, the Kd on ShhN protein (setting [2]) was 1000 to 100000 nM.

In the data set with Gli1, `O=C1CC/C=C/C[C@@H](CC(=O)N2CCN(c3ccccc3)CC2)C(=O)NC[C@@H](c2ccccc2)O1` [Example ES, (2R,6S,E)-6-(2-oxo-2-(4-phenylpiperazin-1-yl)ethyl)-2-phenyl-1-oxa-4-azacyclododec-8-ene-5,12-dione] came in with an IC50 of 100 to 1000 nM. For the same compound, the Kd on ShhN protein (setting [2]) was in the range of 100 to 1000 nM.

`O=C(CCc1ccc(Cl)cc1)N[C@@H]1C/C=C/CCC(=O)O[C@H](c2ccccc2)CNC1=O` [CA] came in with an IC50 in the data set with Gli1 of over 100000 nM.

With `CCOCCNC(=O)C[C@@H]1C/C=C/CCC(=O)O[C@H](c2ccccc2)CNC1=O` [EH], in the data set on Gli1, the IC50 was 1000 to 100000 nM. Besides, the Kd on ShhN protein (setting [2]) was over 100000 nM.

Regarding `C[C@@H]1CCCCCC(=O)N[C@H](c2ccccc2)COC1=O` [Example J, (3R,11R)-11-methyl-3-phenyl-1-oxa-4-azacyclododecane-5,12-dione], the IC50 in the data set on C3H10T1/2 fell in the range of 1000 to 100000 nM. The Kd on ShhN protein (setting [2]) is under 100 nM.

Turning to `O=C(C[C@@H]1C/C=C/CCC(=O)N[C@H](c2ccc(Cl)cc2)COC1=O)NCc1ccc(Cl)cc1` [Example CX, N-(4-chlorobenzyl)-2-((3R,11S,E)-3-(4-chlorophenyl)-5,12-dioxo-1-oxa-4-azacyclododec-8-en-11-yl)acetamide], in the data set on C3H10T1/2, the IC50 is 100 to 1000 nM. For the same compound, the Kd at ShhN protein (setting [2]) was under 100 nM.

Regarding `C[C@H]1CCCC[C@@H](CC(=O)NCc2ccc(Cl)cc2)C(=O)NC[C@@H](c2ccccc2)OC1=O` [Example DB, N-(4-chlorobenzyl)-2-((2R,6S,11S)-11-methyl-5,12-dioxo-2-phenyl-1-oxa-4-azacyclododecan-6-yl)acetamide], the IC50 in the data set with C3H10T1/2 was 100 to 1000 nM. Besides, on ShhN protein (setting [2]), the Kd is under 100 nM.

`CCOCCNC(=O)C[C@@H]1C/C=C/CCC(=O)O[C@H](c2ccccc2)[C@H](C)N(C)C1=O` [Example DR, 2-((2R,3S,6S,E)-3,4-dimethyl-5,12-dioxo-2-phenyl-1-oxa-4-azacyclododec-8-en-6-yl)-N-(2-ethoxyethyl)acetamide]: in the data set on C3H10T1/2, the IC50 is over 100000 nM.

As for `O=C(C[C@@H]1C/C=C/CCC(=O)O[C@H](c2ccccc2)CNC1=O)NCc1ccc([N+](=O)[O-])cc1` [Example DQ, 2-((2R,6S,E)-5,12-dioxo-2-phenyl-1-oxa-4-azacyclododec-8-en-6-yl)-N-(4-nitrobenzyl)acetamide], the IC50 in the data set with C3H10T1/2 was over 100000 nM. The compound further came in with a Kd on ShhN protein of 1000 to 100000 nM.

`C[C@H]1C/C=C/C[C@@H](CC(=O)NCc2ccc(Cl)cc2)C(=O)OC[C@@H](c2ccccc2)NC1=O` [Example DI, N-(4-chlorobenzyl)-2-((3R,6S,11S,E)-6-methyl-5,12-dioxo-3-phenyl-1-oxa-4-azacyclododec-8-en-11-yl)acetamide]: the IC50 in the data set with C3H10T1/2 is 1000 to 100000 nM. The Kd at ShhN protein (setting [2]) fell in the range of 100 to 1000 nM.

Regarding `O=C(C[C@@H]1C/C=C/CCC(=O)N[C@H](c2ccc(F)cc2)COC1=O)NCc1ccc(Cl)cc1` [Example CS, N-(4-chlorobenzyl)-2-((3R,11S,E)-3-(4-fluorophenyl)-5,12-dioxo-1-oxa-4-azacyclododec-8-en-11-yl)acetamide], the IC50 with C3H10T1/2 is under 100 nM. Also, the Kd on ShhN protein (setting [2]) lay in the range of 100 to 1000 nM.

For `C[C@H]1C/C=C/C[C@@H](CC(=O)NCc2ccc(Cl)cc2)C(=O)NC[C@@H](c2ccccc2)OC1=O` [Example DF, N-(4-chlorobenzyl)-2-((2R,6S,11S,E)-11-methyl-5,12-dioxo-2-phenyl-1-oxa-4-azacyclododec-8-en-6-yl)acetamide], the IC50 with C3H10T1/2 is 100 to 1000 nM. Further, the Kd at ShhN protein (setting [2]) fell in the range of 100 to 1000 nM.

With `CS(=O)(=O)N[C@@H]1C/C=C/CCC(=O)N[C@H](c2ccccc2)COC1=O` [Example A, N-((3R,11R,E)-5,12-dioxo-3-phenyl-1-oxa-4-azacyclododec-8-en-11yl)-methane sulfonamide], the IC50 in the data set with C3H10T1/2 is under 100 nM.

In the case of `CC(=O)N[C@@H]1C/C=C/C[C@@H](C)C(=O)OC[C@@H](c2ccccc2)NC1=O` [Example N, N-((3R,6R,11R,E)-11-methyl-5,12-dioxo-3-phenyl-1-oxa-4-azacyclododec-8-en-6-yl)acetamide], in the data set on C3H10T1/2, the IC50 is over 100000 nM. Moreover, at ShhN protein (setting [2]), the Kd was 100 to 1000 nM.

Consider `C[C@H]1[C@@H](c2ccccc2)OC(=O)CCCCC[C@@H](CC(=O)NCc2ccc(Cl)cc2)C(=O)N1C` [Example DC, N-(4-chlorobenzyl)-2-((2R,3S,6S)-3,4-dimethyl-5,12-dioxo-2-phenyl-1-oxa-4-azacyclododecan-6-yl)acetamide], for which the IC50 in the data set with C3H10T1/2 was in the range of 100 to 1000 nM. The dissociation constant Kd on ShhN protein (setting [2]) fell in the range of 100 to 1000 nM.

On to `C[C@@H]1C/C=C/CC(F)(F)C(=O)N[C@H](c2ccccc2)COC1=O` [Example K, (3R,11R,E)-6,6-difluoro-11-methyl-3-phenyl-1-oxa-4-azacyclododec-8-ene-5,12-dione], for which the ring closure, yield of all isomers in data set [1] (from C=CC[C@@H](C)C(=O)OC[C@H](NC(=O)C(F)(F)CC=C)c1ccccc1) was determined as 84%. For the same compound, the IC50 in the data set with C3H10T1/2 is over 100000 nM. Besides, the Kd at ShhN protein (setting [2]) is 100 to 1000 nM.

For `O=C(C[C@@H]1C/C=C/CCC(=O)OC[C@@H]2CCCN2C1=O)NCc1ccc(Cl)cc1` [DP, N-(4-chlorobenzyl)-2-((9S,14aS,E)-3,10-dioxo-3,4,5,8,9,10,12,13,14,14a-decahydro-1H-pyrrolo[2,1-c][1,4]oxaazacyclododecin-9-yl)acetamide], in the data set with C3H10T1/2, the IC50 is 1000 to 100000 nM. Also, the equilibrium dissociation constant (Kd) at ShhN protein (setting [2]) fell in the range of 1000 to 100000 nM.

Compound `C[C@@H]1C/C=C/C[C@H](C)C(=O)N[C@H](c2ccccc2)COC1=O` [Example D, (3R,6S,11R,E)-6,11-dimethyl-3-phenyl-1-oxa-4-azacyclododec-8-ene-5,12-dione] gave a ring closure, yield of all isomers in data set [1] (from C=CC[C@@H](C)C(=O)OC[C@H](NC(=O)[C@@H](C)CC=C)c1ccccc1, Grubbs II, 20.0 mM, 25.0 °C, 12.0 h) of 78%. Further, the IC50 in the data set on C3H10T1/2 was in the range of 100 to 1000 nM. For the same compound, the Kd on ShhN protein (setting [2]) was under 100 nM.

In the case of `CCN(CC)C(=O)C[C@@H]1C/C=C/CCC(=O)O[C@H](c2ccccc2)CNC1=O` [Example DO, 2-((2R,6S,E)-5,12-dioxo-2-phenyl-1-oxa-4-azacyclododec-8-en-6-yl)-N,N-diethylacetamide], the IC50 with C3H10T1/2 lay within 1000 to 100000 nM. On ShhN protein (setting [2]), the Kd was under 100 nM.

`O=C1CC/C=C/C[C@@H](O)C(=O)OC[C@@H](c2ccccc2)N1` [Example H, (3R,11R,E)-11-hydroxy-3-phenyl-1-oxa-4-azacyclododec-8-ene-5,12-dione]: the IC50 with C3H10T1/2 was in the range of 1000 to 100000 nM. Also, at ShhN protein (setting [2]), the dissociation constant (Kd) was under 100 nM.

Take `O=C(C[C@@H]1C[C@H](O)[C@@H](O)CCC(=O)OC[C@@H]2CCCN2C1=O)NCc1ccc(Cl)cc1` [Example G, N-(4-chlorobenzyl)-2-((6S,7S,9S,14aS)-6,7-dihydroxy-3,10-dioxododecahydro-1H-pyrrolo[2,1-c][1,4]oxaazacyclododecin-9-yl)acetamide]: the IC50 with C3H10T1/2 fell in the range of 1000 to 100000 nM. Besides, the Kd on ShhN protein (setting [2]) was in the range of 100 to 1000 nM.

For `C[C@@H]1CCCCC(F)(F)C(=O)N[C@H](c2ccccc2)COC1=O` [Example L, (3R,11R)-6,6-difluoro-11-methyl-3-phenyl-1-oxa-4-azacyclododecane-5,12-dione], in the data set with C3H10T1/2, the IC50 is over 100000 nM.

For `C[C@@H]1C/C=C/C[C@@H](N)C(=O)N[C@H](c2ccccc2)COC1=O` [Example M, (3R,6R,11R,E)-6-amino-11-methyl-3-phenyl-1-oxa-4-azacyclododec-8-ene-5,12-dione], the IC50 with C3H10T1/2 is over 100000 nM. For the same compound, the dissociation constant (Kd) at ShhN protein (setting [2]) lay in the range of 100 to 1000 nM.

For `O=C(C[C@@H]1C/C=C/CCC(=O)N[C@H](c2ccccc2)COC1=O)NCc1ccc(Cl)nc1` [Example DD, N-((6-chloropyridin-3-yl)methyl)-2-((3R,11S,E)-5,12-dioxo-3-phenyl-1-oxa-4-azacyclododec-8-en-11-yl)acetamide], the IC50 with C3H10T1/2 lay within 100 to 1000 nM. The Kd on ShhN protein (setting [2]) was under 100 nM.

Turning to `CC(C)N[C@H]1C/C=C/C[C@@H](CC(=O)NCc2ccc(Cl)cc2)C(=O)NC[C@@H](c2ccccc2)OC1=O` [Example DE, N-(4-chlorobenzyl)-2-((2R,6S,11S,E)-11-(isopropylamino)-5,12-dioxo-2-phenyl-1-oxa-4-azacyclododec-8-en-6-yl)acetamide], the IC50 with C3H10T1/2 was 100 to 1000 nM. Further, the dissociation constant Kd on ShhN protein (setting [2]) lay within 100 to 1000 nM.

Consider `CC(=O)N[C@@H]1C/C=C/CCC(=O)N[C@H](c2ccccc2)COC1=O` [Example B, N-((3R,11R,E)-5,12-dioxo-3-phenyl-1-oxa-4-azacyclododec-8-en-11-yl)acetamide], for which the IC50 in the data set with C3H10T1/2 was under 100 nM. At ShhN protein (setting [2]), the Kd is under 100 nM.
